The test system of the test is HCV 1b-377-neo replicon cells. The experiment in a line: HCV Replicon assay, HCV 1b-377-neo replicon cells. In kind it is cell-based, HCV 1b genotype. To be noted: Hepatitis C virus. As to the method:
An HCV Replicon assay was utilized in the present disclosure, and was prepared, conducted and validated as described in commonly owned PCT/US2006/022197 and in O'Boyle et. al. Antimicrob Agents Chemother. 2005 April; 49(4):1346-53.
HCV 1b-377-neo replicon cells were used to test the currently described compound series as well as cells resistant to compound A containing a Y2065H mutation in NS5A (described in application PCT/US2006/022197). The compounds tested were determined to have more than 10-fold less inhibitory activity on cells containing the mutation than wild-type cells indicating a related mechanism of action between the two compound series. Thus, the compounds of the present disclosure can be effective to inhibit the function of the HCV NS5A protein and are understood to be as effective in combinations as previously described in application PCT/US2006/022197 and commonly owned WO/O4014852. Further, the compounds of the present disclosure can be effective against the HCV 1b genotype. It should also be understood that the compounds of the present disclosure can inhibit multiple genotypes of HCV. […] In one embodiment compounds of the present disclosure are active against the 1a, 1b, 2a, 2b, 3a, 4a, and 5a genotypes.
In general terms: Replicon systems follow genome replication, usually without infectious particles.

Setting [1] is: read-out: EC50 against HCV 1b (Activity or Range), range class.
The mark [2] stands for this setting: read-out: EC50 against HCV 1b (Activity or Range).

pEC50: −log10 of the molar value. Read-outs that look alike come from different tables or passages of the source.

This passage reports EC50 results from patent US8147818B2, “Hepatitis C virus inhibitors” (Bristol-Myers Squibb Company, priority 2008, dated 2012).

With `COC(=O)N[C@H](C(=O)N1CCC[C@H]1c1ncc(-c2ccc(-c3ccc4c(ccc5[nH]c([C@@H]6CCCN6C(=O)[C@@H](NC(=O)OC)C(C)C)nc54)c3)cc2)[nH]1)C(C)C` [Example 22u], the pEC50 (commonly the negative decadic logarithm of the EC50, by convention in mol/L) under setting [1] is 10.00 to 12.00.
Still for that read-out and setting: for `CCN(CC)[C@@H](C(=O)N1[C@@H]2C[C@@H]2C[C@H]1c1ncc(-c2ccc(-c3ccc4c(c3)CCc3[nH]c([C@@H]5C[C@H]6C[C@H]6N5C(=O)[C@@H](c5ccccc5)N(CC)CC)nc3-4)cc2F)[nH]1)c1ccccc1` [Example 22s.1a] the value was 10.00 to 12.00; for `COC(=O)N[C@H](C(=O)N1CCC[C@H]1c1nc2c(ccc3cc(-c4ccc5c(ccc6nc([C@@H]7CCCN7C(=O)[C@@H](NC(=O)OC)C(C)C)[nH]c65)c4)ccc32)[nH]1)C(C)C` [Example 22u.2], 10.00 to 12.00.
As for `COC(=O)N[C@H](C(=O)N1CCC[C@H]1c1ncc(-c2ccc(-c3ccc4c(c3)Cc3nc([C@@H]5CCCN5C(=O)[C@@H](NC(=O)OC)C(C)C)[nH]c3CC4)cc2)[nH]1)C(C)C` [Example 22p], the pEC50 under setting [2] was 9.80.
As to `CCN(CC)[C@@H](C(=O)N(C)[C@@H](C)c1nc2c([nH]1)CCCc1cc(-c3ccc(-c4cnc([C@@H]5CCCN5C(=O)[C@@H](c5ccccc5)N(CC)CC)[nH]4)cc3)ccc1-2)c1ccccc1` [Example 22b.1], under setting [1], the pEC50 is 10.00 to 12.00.
Same read-out and setting: the figure for `CCN(CC)[C@@H](C(=O)N1CCC[C@H]1c1nc2c(ccc3cc(-c4ccc5c(ccc6nc([C@@H]7CCCN7C(=O)[C@@H](c7ccccc7)N(CC)CC)[nH]c65)c4)ccc32)[nH]1)c1ccccc1` [Example 22u.2a] is 10.00 to 12.00; for `COC(=O)N[C@H](C(=O)N1CCC[C@H]1c1nc2ccc3cc(-c4ccc5c(ccc6[nH]c([C@@H]7CCCN7C(=O)[C@@H](NC(=O)OC)C7CCOCC7)nc65)c4)ccc3c2[nH]1)C(C)C` [Example 24.1b] it is 10.00 to 12.00.
For the molecule `COC(=O)N[C@H](C(=O)N1CCC[C@H]1c1nc2ccc3cc(-c4ccc5c(ccc6[nH]c([C@@H]7CCCN7C(=O)[C@H](O)c7ccccc7)nc65)c4)ccc3c2[nH]1)C(C)C` [Example 24.1d], the pEC50 under setting [1] was 10.00 to 12.00.
Take `CCN(CC)[C@@H](C(=O)N1CC(F)(F)C[C@H]1c1ncc(-c2ccc(-c3ccc4c(c3)CCc3[nH]c([C@@H]5CCCN5C(=O)[C@@H](c5ccccc5)N(CC)CC)nc3-4)cc2)[nH]1)c1ccccc1` [Example 22t.a]: the pEC50 under setting [1] is 10.00 to 12.00.
Consider `CCN(CC)[C@@H](C(=O)N1CCC[C@H]1c1ncc(-c2ccc(-c3ccc4c(ccc5[nH]c([C@@H]6CC(F)(F)CN6C(=O)[C@@H](c6ccccc6)N(CC)CC)nc54)c3)cc2)[nH]1)c1ccccc1` [Example 22w.1a], for which the pEC50 under setting [1] is 10.00 to 12.00.
On the same count and under the same terms, for `COC(=O)N[C@H](C(=O)N1CCC[C@H]1c1ncc(-c2ccc(-c3ccc4c(c3)CCCCc3c-4nc([C@@H]4CCCN4C(=O)[C@@H](NC(=O)OC)C(C)C)n3O)cc2)[nH]1)C(C)C` [Example 22q] the value was 10.00 to 12.00.
Same read-out and setting: the figure for `COC(=O)N[C@H](C(=O)N1CCC[C@H]1c1ncc(-c2ccc(-c3ccc4c(c3)CCc3[nH]c([C@@H]5CCCN5C(=O)[C@@H](NC(=O)OC)C(C)C)nc3C4)cc2)[nH]1)C(C)C` [Example 22o] is 9.00 to 10.00; for `COC(=O)N[C@H](C(=O)N1CC(F)(F)C[C@H]1c1ncc(-c2ccc(-c3ccc4c(ccc5[nH]c([C@@H]6CCCN6C(=O)[C@@H](NC(=O)OC)C(C)C)nc54)c3)cc2)[nH]1)C(C)C` [Example 22w] it is 10.00 to 12.00; for `CCN(CC)[C@@H](C(=O)N1CC(F)(F)C[C@H]1c1ncc(-c2ccc(-c3ccc4c(c3)CCCc3[nH]c([C@@H]5CCCN5C(=O)[C@@H](c5ccccc5)N(CC)CC)nc3-4)cc2)[nH]1)c1ccccc1` [Example 22h.1] it is 10.00 to 12.00.
With `COC(=O)N[C@H](C(=O)N1CCC[C@H]1c1nc2c([nH]1)CCCc1cc(-c3ccc(-c4cnc([C@@H]5CCCN5C(C)=O)[nH]4)cc3)ccc1-2)C(C)C` [Example 24], the pEC50 under setting [2] was 9.49.
For the molecule `COC(=O)N[C@H](C(=O)N1CC(F)(F)C[C@H]1c1ncc(-c2ccc(-c3ccc4c(ccc5[nH]c([C@@H]6CC(F)(F)CN6C(=O)[C@@H](NC(=O)OC)C(C)C)nc54)c3)cc2)[nH]1)C(C)C` [Example 22w.2], the pEC50 under setting [1] is 10.00 to 12.00.
